Measurements from patent US8455528B2, “Imidazole derivatives useful as inhibitors of FAAH” (Merck Sharp & Dohme Corp., priority 2008, dated 2013).

Biological target: T1, Human FAAH (Homo sapiens, UniProt O00519)
T1 construct: The full length FAAH was subcloned into the mammalian expression vector, pcDEF.neo; expressed in transfected cells
T1 sequence (O00519 1-579): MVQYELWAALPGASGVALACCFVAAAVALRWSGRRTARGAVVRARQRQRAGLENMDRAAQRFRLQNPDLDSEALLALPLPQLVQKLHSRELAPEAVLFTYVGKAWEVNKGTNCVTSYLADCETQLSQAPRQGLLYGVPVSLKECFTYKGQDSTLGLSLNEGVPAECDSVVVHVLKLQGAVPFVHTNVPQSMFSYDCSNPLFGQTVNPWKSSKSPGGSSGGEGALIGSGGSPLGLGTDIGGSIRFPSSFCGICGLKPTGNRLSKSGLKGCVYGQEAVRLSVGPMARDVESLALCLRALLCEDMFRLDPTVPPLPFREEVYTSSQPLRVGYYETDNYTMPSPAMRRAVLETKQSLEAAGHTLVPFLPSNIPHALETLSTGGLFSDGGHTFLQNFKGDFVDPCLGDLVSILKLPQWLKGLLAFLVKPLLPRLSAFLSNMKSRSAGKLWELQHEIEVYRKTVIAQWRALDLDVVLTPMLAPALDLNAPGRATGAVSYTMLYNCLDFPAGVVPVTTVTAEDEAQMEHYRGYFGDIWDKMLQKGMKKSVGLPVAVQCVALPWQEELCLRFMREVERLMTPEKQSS
Assay: Human FAAH lysate assay (CHO cell lysate, AAMCA fluorescent substrate)
Assay type: biochemical
Conditions: FAAH inhibition, CHO cell lysate expressing human FAAH; read-out: Human Lysate
Text: To assist in assay development stable cell lines for human, murine and rat full length FAAH were developed. Human FAAH cDNA (Accession No: NM-001441.1) was purchased from Origene (Rockville, Md.). The full length FAAH was subcloned into the mammalian expression vector, pcDEF.neo, using XbaI and EcoRI restriction sites and used for stable cell line generation. CHO cells expressing FAAH were used to prepare either crude cell lysate or microsome fractions. To harvest cells, tissue culture media was decanted, the monolayer washed three times with Ca^++Mg^++ free PBS and cells recovered after 15 min in enzyme free dissociation media (Millipore Corp, Billerica, Mass.). Cells were collected by centrifuging at 2000 rpm for 15 min. and the cell pellet re-suspended with 50 mM HEPES (pH 7.4) containing 1 mM EDTA and the protease inhibitors aprotinin (1 mg/ml) and leupeptin (100 μM). […] The pellet containing FAAH-enriched microsomes was re-suspend in 50 mM HEPES, (pH 7,4) 1 mM EDTA, and any remaining DNA sheared by passage of material through a 23 gauge needle and aliquots of enzyme were store at -80° C. prior to use. […] (American Radiolabeled Chemicals; 1 mCi/ml) with FAAH (Life Sciences (1995), 56, 1999-2005 and Journal of Pharmacology and Experimented Therapeutics (1997), 283, 729-734), Analytical. Biochemistry (2003), 318, 270-5. […] Analytical. Biochemistry (2005). 343, 143-51 […] Fluorescent release as a measure of FAAH activity was monitored by reading the plate in a CytoFluor Multiplate Reader ([…]). Whole cell assay is conducted with cells harvested after rinsing tissue culture flasks three times with Ca^++Mg^++ free PBS, incubating for 10 min in Enzyme free dissociation media and centrifuging for 5 minutes at 1,000 rpm in table top centrifuge. Cells are resuspended in assay buffer at desired cell number in (4×10^4 cells/assay in 96-well format; 1×10^4 cells/assay in 384-well format) and assayed as described. […] The reaction was terminated by addition of 2 volumes of chloroform:methanol (1:1) and mixed by vortexing. […] K., et al. A fluorescence-based assay for fatty acid amide hydrolase compatible with high-throughput screening. Anal. Biochem. 343:143-51 (2005) • Wilson S. J., et l. A high-throughput-compatible assay for determining the activity of fatty acid amide hydrolase. Anal Biochem. 318:270-5 (2003).

| Compound | IC50 [µM] |
| --- | --- |
| CS(=O)(=O)c1ccc(-c2nc(C3CCC3)[nH]c2Sc2ccc(Cl)cc2)cc1 [Ex 13] | 0.946 |
| Cn1c(C2CCC2)nc(-c2ccc(S(C)(=O)=O)cc2)c1Sc1ccc(Cl)cc1 [Ex 14] | 0.0265 |
| CC(C)c1nc(-c2ccc(S(C)(=O)=O)cc2)c(Sc2ccc(Cl)cc2)n1C [Ex 29, 5-[(4-Chlorophenyl)thio]-2-isopropyl-1-methyl-4-[4-(methylsulfonyl)phenyl]-1H-imidazole] | 0.0744 |
| Cn1cnc(-c2ccc(C#N)cc2)c1Sc1ccc(Cl)cc1 [Ex 33, 4-{5-[(4-chlorophenyl)thio]-1-methyl-1H-imidazol-4-yl}benzonitrile] | 0.363 |
| Cn1c(-c2ccccn2)nc(-c2ccc(-c3nnco3)cc2)c1Sc1ccc(Cl)cn1 [Ex 36, 5-Chloro-2-({1-methyl-4-[4-(1,3,4-oxadiazol-2-yl)phenyl]-2-pyridin-2-yl-1H-imidazol-5-yl}thio)pyridine] | 0.0269 |
| Cn1c(-c2ccccn2)nc(-c2ccc(N)cc2)c1Sc1ccc(Cl)cc1 [Ex 98, 4-{5-[(4-Chlorophenyl)thio]-1-methyl-2-pyridin-2-yl-1H-imidazol-4-yl}aniline] | 0.0337 |

These reach a lower IC50. Values come first.

| IC50 [µM] | Compound |
| --- | --- |
| 0.0214 | Cn1c(-c2ccccn2)nc(-c2ccc(C(O)C(F)F)cc2)c1Sc1ccc(Cl)cc1 (stereo not drawn) [Ex 57, 1-(4-{5-[(4-Chlorophenyl)thio]-1-methyl-2-pyridin-2-yl-1H-imidazol-4-yl}phenyl)-2,2-difluoroethanol] |
| 0.0212 | Cn1c(-c2ccccc2)nc(-c2ccc(C#N)cc2)c1Sc1ccc(Cl)cc1 [Ex 2, 4-{5-[(4-Chlorophenyl)thio]-1-methyl-2-phenyl-1H-imidazol-4-yl}benzonitrile] |
| 0.0166 | Cn1c(-c2ccccn2)nc(-c2ccc(-n3ccnn3)cc2)c1Sc1ccc(Cl)cc1 [Ex 66] |
